# Data reported in patent US9308215B2, “Avermectins and milbemycins as anti-mycobacterial agents” (priority 2013, dated 2016).
# Like-named read-outs stand apart in the source and are kept apart here.
# How the values were obtained:
# E. coli = test: microbe, parasite or virus in culture; assay type: cell-based, Escherichia coli; conditions: strain O157:H7, WT
# A. baumannii = test: microbe, parasite or virus in culture; assay type: cell-based, Acinetobacter baumannii; conditions: strain ATCC 1960, WT
# P. aeruginosa = test: microbe, parasite or virus in culture; assay type: cell-based, Pseudomonas aeruginosa; conditions: strain PA01 (H103), WT
# S. lividans = test: microbe, parasite or virus in culture; assay type: cell-based, Streptomyces lividans; conditions: strain 1326, WT
# R. jostii = test: microbe, parasite or virus in culture; assay type: cell-based, Rhodococcus jostii; conditions: strain RHA1, WT
# K. rhizophila = test: microbe, parasite or virus in culture; assay type: cell-based, Kocuria rhizophila; conditions: WT
# S. aureus = test: microbe, parasite or virus in culture; assay type: cell-based, Staphylococcus aureus; conditions: strain ATCC 25923, WT
# M. smegmatis = test: microbe, parasite or virus in culture; assay type: cell-based, Mycobacterium smegmatis; conditions: strain mc^2155, WT
# M. bovis BCG = test: microbe, parasite or virus in culture; assay type: cell-based, Mycobacterium bovis
# M. tuberculosis = test: microbe, parasite or virus in culture; assay type: cell-based, Mycobacterium tuberculosis; conditions: for MIC90: Mycobacterium tuberculosis
# [1] = test system: representative Gram-positive and Gram-negative bacteria; assay type: cell-based
# M. aurum = test: MIC against mycobacterial species; assay type: cell-based; conditions: M. aurum
# M. avium = test: MIC against mycobacterial species; assay type: cell-based, Mycobacterium avium
# M. chelonae = test: MIC against mycobacterial species; assay type: cell-based; conditions: M. chelonae
# M. gordonae = test: MIC against mycobacterial species; assay type: cell-based; conditions: M. gordonae 324
# M. intracellulare = test: MIC against mycobacterial species; assay type: cell-based
# M. microti = test: microbe, parasite or virus in culture; assay type: cell-based
# M. phlei = test: MIC against mycobacterial species; assay type: cell-based; conditions: M. phlei
# [2] = Humans, oral, cited from earlier work
# [3] = Dogs, 250 μg/kg oral; cited from earlier work
# [4] = mice; cited from earlier work
# [5] = rats; cited from earlier work
# [6] = single dose, cited from earlier work
# [7] = ivermectin: extra-label use; selamectin, moxidectin: therapeutic doses; cited from earlier work
compound,measurement,setting,value
CO[C@H]1C[C@H](O[C@H]2[C@H](C)O[C@@H](O[C@@H]3/C(C)=C/C[C@@H]4C[C@@H](C[C@]5(C=C[C@H](C)[C@@H](C6CCCCC6)O5)O4)OC(=O)[C@@H]4C=C(C)[C@@H](O)[C@H]5OC/C(=C\C=C\[C@@H]3C)[C@]54O)C[C@@H]2OC)O[C@@H](C)[C@@H]1O [Doramectin],In vitro MIC90,E. coli,>256 µg/mL
same,In vitro MIC90,A. baumannii,>256 µg/mL
same,In vitro MIC90,P. aeruginosa,>256 µg/mL
same,In vitro MIC90,S. lividans,>256 µg/mL
same,In vitro MIC90,R. jostii,>256 µg/mL
same,In vitro MIC90,K. rhizophila,>256 µg/mL
same,In vitro MIC90,S. aureus,>256 µg/mL
same,In vitro MIC90,M. smegmatis,128 µg/mL
same,In vitro MIC90,"M. bovis BCG; strain BCG Pasteur, WT",8 µg/mL
same,level of activity,"M. tuberculosis; against all Mycobacterium species, MTT",lower levels of activity
same,In vitro MIC90,"M. tuberculosis; strain 1254, WT",8 to 16 µg/mL
same,In vitro MIC90,"M. tuberculosis; strain CDC 1551, WT",4 to 8 µg/mL
same,In vitro MIC90,"M. tuberculosis; strain Erdman, WT",8 µg/mL
same,In vitro MIC90,"M. tuberculosis; strain H37Rv, WT",8 µg/mL
same,Inhibitory effects,[1],not observed
Abamectin,MIC,M. aurum,8 µg/mL
same,MIC,M. avium; M. avium 702,>256 µg/mL
same,MIC,M. avium; M. avium 715,>256 µg/mL
same,MIC,M. chelonae,16 µg/mL
same,MIC,M. gordonae,16 µg/mL
same,MIC,M. intracellulare; M. intracellulare 1403 ATCC35761,16 µg/mL
same,MIC,M. intracellulare; M. intracellulare 1403 Trudeau,16 µg/mL
same,MIC,M. intracellulare; M. intracellulare D673,32 µg/mL
same,MIC,M. intracellulare; M. intracellulare FM,16 µg/mL
same,MIC,M. microti; M. microti 1601,16 µg/mL
same,MIC,M. microti; M. microti 1608,64 µg/mL
same,MIC,M. microti; M. microti Ov254,256 µg/mL
same,MIC,M. phlei,>256 µg/mL
CO/N=C1\C[C@]2(C[C@@H]3C[C@@H](C/C=C(\C)C[C@@H](C)/C=C/C=C4\CO[C@@H]5[C@H](O)C(C)=C[C@@H](C(=O)O3)[C@]45O)O2)O[C@H](/C(C)=C/C(C)C)[C@H]1C [Moxidectin],MIC90,"E. coli; Escherichia coli, read-out: In vitro MIC90",> 256 µg/mL
same,MIC90,"A. baumannii; Acinetobacter baumannii, ATCC1960, read-out: In vitro MIC90",> 256 µg/mL
same,MIC90,"P. aeruginosa; Pseudomonas aeruginosa, read-out: In vitro MIC90",> 256 µg/mL
same,MIC90,"S. lividans; Streptomyces lividans, read-out: In vitro MIC90",> 256 µg/mL
same,MIC90,"R. jostii; Rhodococcus jostii, read-out: In vitro MIC90",> 256 µg/mL
same,MIC90,"K. rhizophila; Kocuria rhizophila, read-out: In vitro MIC90",> 256 µg/mL
same,MIC90,"S. aureus; Staphylococcus aureus, ATCC25923, read-out: In vitro MIC90",> 256 µg/mL
same,MIC90,"M. smegmatis; Mycolicibacterium smegmatis, read-out: In vitro MIC90",4 µg/mL
same,MIC90,"M. bovis BCG; Mycobacterium tuberculosis variant bovis BCG, BCG, read-out: In vitro MIC90",4 µg/mL
same,MIC90,"M. tuberculosis; ERDMAN, read-out: In vitro MIC90, strain Erdman, WT",2 to 4 µg/mL
same,MIC90,"M. tuberculosis; read-out: In vitro MIC90, strain 1254, WT",4 µg/mL
same,MIC90,"M. tuberculosis; read-out: In vitro MIC90, strain BC-DS1 (drug-susceptible)",4 µg/mL
same,MIC90,"M. tuberculosis; read-out: In vitro MIC90, strain BC-DS3 (drug-susceptible)",2 µg/mL
same,MIC90,"M. tuberculosis; read-out: In vitro MIC90, strain BC-DS4 (drug-susceptible)",2 µg/mL
same,MIC90,"M. tuberculosis; read-out: In vitro MIC90, strain BC-DS5 (drug-susceptible)",2 to 4 µg/mL
same,MIC90,"M. tuberculosis; read-out: In vitro MIC90, strain CDC 1551, WT",2 µg/mL
same,MIC,"M. aurum; Mycolicibacterium aurum, read-out: MIC",1 µg/mL
same,MIC,M. avium; Mycobacterium avium,> 256 µg/mL
same,MIC,"M. avium; Mycobacterium avium, ATCC25291, M. avium ATCC 25291, read-out: MIC",> 128 µg/mL
same,MIC,"M. avium; Mycobacterium avium, M. avium 715",> 256 µg/mL
same,MIC,"M. chelonae; Mycobacteroides chelonae, read-out: MIC",4 µg/mL
same,MIC,"M. gordonae; Mycobacterium gordonae, read-out: MIC",4 µg/mL
same,MIC,"M. intracellulare; Mycobacterium intracellulare, M. intracellulare D673",> 256 µg/mL
same,MIC,"M. intracellulare; Mycobacterium intracellulare, M. intracellulare FM",> 256 µg/mL
same,MIC,"M. intracellulare; Mycobacterium intracellulare, M. intracellulare 1403 ATCC35761, read-out: MIC",16 µg/mL
same,MIC,"M. intracellulare; Mycobacterium intracellulare, M. intracellulare 1403 Trudeau, read-out: MIC",32 µg/mL
same,MIC,"M. microti; M. microti 1601, read-out: MIC",4 µg/mL
same,MIC,"M. microti; M. microti 1608, read-out: MIC",4 µg/mL
same,MIC,"M. microti; M. microti Ov254, read-out: MIC",4 µg/mL
same,MIC,"M. phlei; Mycolicibacterium phlei, read-out: MIC",8 µg/mL
same,AUC,[2]; 3 mg fast,1442 ng·h/mL
same,Cmax,[2]; 3 mg fast,22.4 ng/mL
same,T½,[2]; 3 mg fast,33.8 days
same,AUC,[2]; 9 mg fast,3024 ng·h/mL
same,Cmax,[2]; 9 mg fast,57.9 ng/mL
same,T½,[2]; 9 mg fast,34.6 days
same,AUC,[2]; 18 mg fast,5856 ng·h/mL
same,Cmax,[2]; 18 mg fast,141 ng/mL
same,T½,[2]; 18 mg fast,22 days
same,AUC,[2]; 36 mg fast,10824 ng·h/mL
same,Cmax,[2]; 36 mg fast,289 ng/mL
same,T½,[2]; 36 mg fast,20.2 days
same,AUC,[2]; 36 mg fed,14976 ng·h/mL
same,Cmax,[2]; 36 mg fed,296 ng/mL
same,T½,[2]; 36 mg fed,25.7 days
same,AUC,[3],11800 ng·h/mL
same,Cmax,[3],234 ng/mL
same,T½,[3],25.9 days
same,LD50,[4],84 mg/kg body weight
same,LD50,[5],106 mg/kg body weight
same,dose reported safe in humans,[6]; clinical studies,up to 36 mg
same,dose reported not safe in humans,[6],54 mg
same,toxicity in dogs lacking MDR1 P-glycoprotein / homozygous MDR1 mutation,[7],without any signs of toxicosis
